We go through three compounds from patent US12391695B2, “PRMT5 inhibitors” (Lupin Limited, priority 2019, dated 2025).

A word on the IC50: it is the point on the concentration scale where inhibition reaches its midpoint.

Some results are limits rather than exact numbers.

One assay deals with PRMT5:MEP50 (Homo sapiens, UniProt O14744). As to the kind of experiment: PRMT5 biochemical assay (HTRF, biotinylated H4R3 substrate), protocols 1 and 2. Particulars: 1 μM SAM, 50 nM biotinylated H4R3, protocol 1 or 2 not given, read-out: IC50 (activity range), inhibition of PRMT5. The procedure: (§1) Inhibitory effect of compounds on PRMT5 was assessed using HTRF detection technology in biochemical assay. Biotinylated H4R3 (residues 1-21) was used as a substrate. Compounds were pre-incubated with 15-25 ng PRMT5:MEP50 per well of a 384-well plate for 30 min at room temperature in the assay buffer containing 20 mM Bicine, pH 7.6, 25 mM NaCl, 2 mM DTT, 0.01% Chicken albumin and 0.01% Tween-20. Reaction was initiated by adding 1 μM of SAM and 50 nM biotinylated H4R3. Total assay volume was 15 μL. Reaction was continued for 120 min at room temperature. Then detection solution containing Streptavidin-Eu cryptate, anti-rabbit IgG-XL-665, Histone H4R3 Dimethyl Symmetric (H4R3me2s) Polyclonal Antibody, all prepared in HTRF detection buffer was added and further incubated for 30 min at room temperature. HTRF signal was recorded in PHERAStar microplate reader. Ratio of signal obtained at 665 nm and 620 nm was used to compute the percent inhibition of compound as follows % Inhibition=100−((Test Ratio−Negative control Ratio)/(Positive control Ratio−Negative control Ratio)*100) where Positive control=PRMT5+SAM+H4R3 Negative control=PRMT5+H4R3 Biochemical Assay Protocol 2
as §1, with “2.5” for “15-25”, “4 h” for “120 min”, “control=PRMT5+H4R3” for “control=PRMT5+H4R3 Biochemical Assay Protocol 2”
On the technique in general: In TR-FRET formats the signal depends on donor and acceptor labels being close together.

For another assay, the system named is SDMA. As to the kind of experiment: SDMA inhibition assay in Z-138 cells (ELISA with anti-SDMA antibody). The format is cell-based. As to conditions: Homo sapiens, Z-138, 48 h, 48 h treatment, read-out: IC50 (activity range), SDMA inhibition. The procedure:
Z-138 cells (ATCC, CRL-3001™) were seeded at a density of 1 million cells/well in transparent, flat bottomed tissue culture grade 48-well plates. Cells were treated with various concentration of test compounds for a period of 48 h. Cell lysate was prepared using 1× CST Lysis buffer (Cell Signaling Technology, USA) and 500 ng/well/50 μL of lysate in pH 9.6 carbonate buffer was coated on 96-well Maxisorb plate and incubated overnight at 4° C. The plate was washed twice in 1×PBS containing 0.05% Tween 20 and blocked in 1% BSA for 1 h at ambient temperature. Further, the plate was incubated first with primary antibody (anti-SDMA antibody; CST #13222s) at ambient temperature for 2 h and then with HRP-conjugated secondary antibody at ambient temperature for 1 h with 2 intermittent washing steps in between.
For luminiscence based detection, HRP substrates (substrate A+substrate B in a 1:1 proportion) were added followed by luminiscence reading after 30 min in Synergy™ 2 reader (Biotek, USA).
For absorbance based detection, TMB substrate was added followed by addition of STOP solution (2N H2SO4) post colour development and absorbance (excitation 450 nm and emission 540 nm) was measured in Synergy™ 2 reader (Biotek, USA).
% inhibition of SDMA was calculated relative to the vehicle control samples containing media with 0.1% DMSO alone as per the formula below. (Avg. of Untreated Control−Avg. of Test)×100 Avg. Of Untreated Control
The IC50 values of individual compounds were calculated with Non Linear Regression Analysis using Graph Pad Prism (Graph Pad software, Inc, USA).
On the technique in general: An ELISA detects its analyte on a solid surface through an enzyme-linked reagent.

The test system of a further assay is Z-138 cells. Put plainly: Anti-cancer assay (Z-138), cell viability by CellTiterGlo. In kind it is cell-based. As to conditions: Homo sapiens, 96 h treatment, read-out: IC50 (activity range), inhibition of cell viability. The procedure:
Z-138 cells were seeded at a density of 2000-3000 cells per well in culture media (IMDM+10% FBS). PANC-1 (ATCC, CRL-1469™) and MIA PaCa-2 (ATCC, CRL-1420™) cells were seeded at a density of 200-300 cells per well in culture media (DMEM+10% FBS). Cells were seeded in opaque, flat bottomed tissue culture grade 96-well plates and Z-138 cells (suspension) were seeded and treated on the same day with various concentrations of test compounds. PANC-1 and MIA PaCa-2 cells, being adherent, were kept for overnight settlement at standard cell culture conditions (37° C., 5% CO2). On the following day, cells were treated with various concentrations of test compounds. Cells were treated with test compounds for a period of 96 h, 7 days and 10 days, for Z-138 cells, PANC-1 cells and MIA PaCa-2 cells, respectively. Cell viability was assessed using CellTiterGlo™ (Promega, USA) as per manufacturer's instructions. Relative Light Units (RLU) were read in Synergy™ 2 reader (Biotek, USA). The assay measures cellular ATP as an indicator of cell viability. RLU is proportional to the number of viable cells in the respective well. % inhibition of cell viability was calculated relative to the vehicle control samples containing media with 0.1% DMSO alone as per the formula below. (Avg. of Untreated Control−Avg. of Test)×100 Avg. Of Untreated Control
The IC50 values of individual compounds were calculated with Non Linear Regression Analysis using Graph Pad Prism (Graph Pad software, Inc, USA). • Anti-Cancer Assay (Z-138)
Background: Cellular ATP, detected with luciferase, serves as a proxy for viable cell number.

Sequence of PRMT5:MEP50 (O14744 whole entry, the tested form may be a part): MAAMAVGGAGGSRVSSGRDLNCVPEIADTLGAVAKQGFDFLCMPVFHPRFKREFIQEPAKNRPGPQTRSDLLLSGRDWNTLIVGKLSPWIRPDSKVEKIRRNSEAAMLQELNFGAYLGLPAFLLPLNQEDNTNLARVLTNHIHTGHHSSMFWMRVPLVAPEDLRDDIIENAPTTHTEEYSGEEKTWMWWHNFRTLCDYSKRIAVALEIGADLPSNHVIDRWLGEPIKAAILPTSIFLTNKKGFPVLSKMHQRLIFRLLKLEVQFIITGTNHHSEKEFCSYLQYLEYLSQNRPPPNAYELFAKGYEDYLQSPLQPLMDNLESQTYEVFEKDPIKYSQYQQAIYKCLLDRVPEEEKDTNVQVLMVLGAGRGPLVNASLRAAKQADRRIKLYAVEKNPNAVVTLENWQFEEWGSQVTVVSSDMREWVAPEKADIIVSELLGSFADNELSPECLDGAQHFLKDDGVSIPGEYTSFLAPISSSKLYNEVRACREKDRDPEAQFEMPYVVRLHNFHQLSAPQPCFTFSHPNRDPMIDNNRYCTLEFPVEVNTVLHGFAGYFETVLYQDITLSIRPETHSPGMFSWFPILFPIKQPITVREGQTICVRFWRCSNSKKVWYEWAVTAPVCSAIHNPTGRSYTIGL
Sequence of PRMT5:MEP50 (Q9BQA1 whole entry partner, the tested form may be a part): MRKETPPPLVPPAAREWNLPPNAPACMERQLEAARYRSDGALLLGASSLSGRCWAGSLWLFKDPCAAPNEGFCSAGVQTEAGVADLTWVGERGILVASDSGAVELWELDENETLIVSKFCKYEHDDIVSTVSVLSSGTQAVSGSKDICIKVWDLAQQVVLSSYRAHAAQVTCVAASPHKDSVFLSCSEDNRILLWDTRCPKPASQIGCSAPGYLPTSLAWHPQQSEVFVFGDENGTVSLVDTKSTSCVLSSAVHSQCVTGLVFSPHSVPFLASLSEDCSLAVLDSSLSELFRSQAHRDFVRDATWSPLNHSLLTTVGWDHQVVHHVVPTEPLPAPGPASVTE

Turning to `Nc1nc2cc(CC[C@@]34C[C@@H]3[C@@H](n3ccc5c(N)ncnc53)[C@H](O)[C@@H]4O)cnc2cc1Cl` [Compound 24, (1R,2R,3S,4R,5S)-1-(2-(6-Amino-7-chloro-1,5-naphthyridin-3-yl)ethyl)-4-(4-amino-7H-pyrrolo[2,3-d]pyrimidin-7-yl)bicyclo[3.1.0]hexane-2,3-diol], the IC50 is 0.25 to 0.95 nM on PRMT5:MEP50, 1.1 to 50 nM in the assay with SDMA and over 1 nM with Z-138 cells.

As for `Cc1cn([C@@H]2C=C(CCc3cc(C(F)F)c(F)c4c3CNCC4)[C@@H](O)[C@H]2O)c2ncnc(N)c12` [Compound 25, (1S,2R,5R)-5-(4-amino-5-methyl-7H-pyrrolo[2,3-d]pyrimidin-7-yl)-3-(2-(6-(difluoromethyl)-5-fluoro-1,2,3,4-tetrahydroisoquinolin-8-yl)ethyl)cyclopent-3-ene-1,2-diol], the IC50 on PRMT5:MEP50 is 0.25 to 0.95 nM; with SDMA it was 1.1 to 50 nM; in the assay with Z-138 cells, over 1 nM.

For the compound `Nc1nc2cc(CCC3=C[C@@H](n4ccc5c4ncn4ccnc54)[C@H](O)[C@@H]3O)ccc2cc1Br` [Compound 26, (1S,2R,5R)-3-(2-(2-Amino-3-bromoquinolin-7-yl)ethyl)-5-(7H-imidazo[1,2-c]pyrrolo[3,2-e]pyrimidin-7-yl)cyclopent-3-ene-1,2-diol], the IC50 is over 0.95 nM on PRMT5:MEP50, 1.1 to 50 nM in the assay with SDMA and over 1 nM in the assay with Z-138 cells.
